Reference: the supplement of paper PMC7017272
± gives the standard deviation of the averaged measurements.

Key:
[1] = system: UT-SCC-8; test: relative IC50 (midpoint of the fitted curve; maximal inhibition may be below 50%); higher = less potent; details: culture condition: embedded in Myogel + collagen I; treatment time: 3 days
Summary of the method: (§1)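 Viability was read with CellTiter-Glo 2.0 luminescence and scaled against vehicle (0.1% DMSO) and cell-killing control wells. The assay used HPV-negative HNSCC cell lines at 500 cells/well in 384-well plates, grown on plastic, on Matrigel or Myogel coatings (500 µg/mL), or embedded in Matrigel or Myogel plus rat collagen I, and treated for 3 days at five 10-fold concentrations. IC50, maximal inhibition and drug sensitivity score were derived from percent-inhibition dose–response curves fitted in the FIMM pipeline.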

[2] = system: UT-SCC-44; test: as above; details: treatment time: 3 days
Summary of the method: as §1

[3] = system: UT-SCC-73; test: as above; details: culture condition: plastic 2D (no matrix); treatment time: 3 days
Summary of the method: as §1

[4] = system: UT-SCC-42B; test: as above; details: treatment time: 3 days
Summary of the method: as §1

[5] = system: UT-SCC-106A; test: as above; details: treatment time: 3 days
Summary of the method: as §1

[6] = system: UT-SCC-24A; test: maximal % inhibition of viability relative to DMSO; higher = stronger effect; details: treatment time: 3 days
Protocol: (§2)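 HNSCC cell lines (500 cells/well, 384-well) were cultured on plastic, on top of (2D) or embedded (3D) in Matrigel or human leiomyoma matrix Myogel (500 ug/mL; Myogel 3D mixed with rat collagen I). Cells were treated for 3 days with 5 ten-fold concentrations of each drug, and viability was read by CellTiter-Glo. Viability was normalised to DMSO (0% inhibition) and 100 uM benzethonium chloride (100% inhibition) controls and fitted with the FIMM DSRT pipeline to give IC50 (nM), maximal % inhibition and the drug sensitivity score (DSS). Suffixes _1/_2/_3 on drug names are replicates.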

[7] = system: UT-SCC-24A; test: relative IC50 (midpoint of the fitted curve; maximal inhibition may be below 50%); higher = less potent; details: treatment time: 3 days
Protocol: as §2

[8] = system: UT-SCC-28; test: drug sensitivity score (DSS); higher = more sensitive; extreme values may be limits of the assay; details: treatment time: 3 days
Summary of the method: as §1

[9] = system: UT-SCC-8; test: as above; details: treatment time: 3 days
Summary of the method: as §1

[10] = system: UT-SCC-42A; test: as above; details: treatment time: 3 days
Summary of the method: as §1

[11] = system: UT-SCC-44; test: as above; details: treatment time: 3 days
Summary of the method: as §1

[12] = system: UT-SCC-73; test: as above; details: treatment time: 3 days
Summary of the method: as §1

[13] = system: UT-SCC-42B; test: as above; details: treatment time: 3 days
Summary of the method: as §1

[14] = system: UT-SCC-24B; test: as above; details: treatment time: 3 days
Summary of the method: as §1

[15] = system: UT-SCC-40; test: as above; details: treatment time: 3 days
Summary of the method: as §1

[16] = system: UT-SCC-14; test: as above; details: treatment time: 3 days
Summary of the method: as §1

[17] = system: UT-SCC-106A; test: as above; details: treatment time: 3 days
Summary of the method: as §1

[18] = system: UT-SCC-81; test: as above; details: treatment time: 3 days
Summary of the method: as §1

[19] = culture condition: embedded in Matrigel
[20] = culture condition: on top of Matrigel
[21] = culture condition: on top of Myogel
[22] = culture condition: plastic 2D (no matrix)
[23] = culture condition: embedded in Myogel + collagen I

C#Cc1cccc(Nc2ncnc3cc(OCCOC)c(OCCOC)cc23)c1 [Erlotinib]
relative IC50 [1]: > 9.89 µM
relative IC50 [2, 19]: > 9.89 µM
relative IC50 [2, 20]: > 9.89 µM
relative IC50 [3]: > 9.89 µM
relative IC50 [4, 19]: 2.11 µM
relative IC50 [4, 21]: > 9.89 µM
relative IC50 [4, 22]: > 9.89 µM
relative IC50 [5, 19]: 2070 nM
relative IC50 [5, 21]: > 9890 nM
maximal % inhibition of viability [6, 19]: 65.2 ± 8%
maximal % inhibition of viability [6, 23]: 27.5 ± 6.3%
maximal % inhibition of viability [6, 20]: 50.9 ± 7.2%
maximal % inhibition of viability [6, 21]: 7.53 ± 1.6%
maximal % inhibition of viability [6, 22]: 30.6 ± 5%
relative IC50 [7, 23]: 1560 nM
relative IC50 [7, 20]: 860 nM
relative IC50 [7, 21]: > 9890 nM
relative IC50 [7, 22]: 855 nM
drug sensitivity score [8, 19]: 0 DSS
drug sensitivity score [8, 23]: 1.27 ± 2.2 DSS
drug sensitivity score [8, 20]: 0 DSS
drug sensitivity score [8, 22]: 0 DSS
drug sensitivity score [9, 19]: 7.57 ± 0.46 DSS
drug sensitivity score [9, 23]: 0 DSS
drug sensitivity score [9, 20]: 5.63 ± 0.65 DSS
drug sensitivity score [9, 21]: 3.4 ± 2.5 DSS
drug sensitivity score [9, 22]: 4.2 ± 1.1 DSS
drug sensitivity score [10, 19]: 1.47 ± 2 DSS
drug sensitivity score [10, 23]: 0 DSS
drug sensitivity score [10, 20]: 2.73 ± 2.8 DSS
drug sensitivity score [10, 21]: 0.1 ± 0.1 DSS
drug sensitivity score [10, 22]: 1.73 ± 1.5 DSS
drug sensitivity score [11, 19]: 0 DSS
drug sensitivity score [11, 23]: 0.133 ± 0.23 DSS
drug sensitivity score [11, 20]: 0 DSS
drug sensitivity score [11, 21]: 0.0667 ± 0.12 DSS
drug sensitivity score [11, 22]: 0.0667 ± 0.12 DSS
drug sensitivity score [12, 19]: 0.3 ± 0.3 DSS
drug sensitivity score [12, 23]: 1.17 ± 2 DSS
drug sensitivity score [12, 20]: 0 DSS
drug sensitivity score [12, 21]: 0.233 ± 0.4 DSS
drug sensitivity score [12, 22]: 0 DSS
drug sensitivity score [13, 19]: 2.4 ± 1.4 DSS
drug sensitivity score [13, 20]: 1 ± 1.7 DSS
drug sensitivity score [13, 21]: 0 DSS
drug sensitivity score [13, 22]: 0 DSS
drug sensitivity score [14, 19]: 11.3 ± 1 DSS
drug sensitivity score [14, 23]: 8.03 ± 3 DSS
drug sensitivity score [14, 20]: 10.4 ± 0.51 DSS
drug sensitivity score [14, 21]: 3.97 ± 0.21 DSS
drug sensitivity score [14, 22]: 15.2 ± 1.4 DSS
drug sensitivity score [15, 19]: 0.333 ± 0.31 DSS
drug sensitivity score [15, 23]: 1.97 ± 3.4 DSS
drug sensitivity score [15, 20]: 0 DSS
drug sensitivity score [15, 21]: 0 DSS
drug sensitivity score [15, 22]: 0.0333 ± 0.058 DSS
drug sensitivity score [16, 19]: 1.73 ± 0.57 DSS
drug sensitivity score [16, 23]: 0.0333 ± 0.058 DSS
drug sensitivity score [16, 20]: 0.4 ± 0.69 DSS
drug sensitivity score [16, 21]: 0.733 ± 1.3 DSS
drug sensitivity score [16, 22]: 0.9 ± 1.6 DSS
drug sensitivity score [17, 19]: 1.43 ± 0.8 DSS
drug sensitivity score [17, 23]: 0 DSS
drug sensitivity score [17, 20]: 1.53 ± 2.1 DSS
drug sensitivity score [17, 21]: 0 DSS
drug sensitivity score [17, 22]: 1.97 ± 1.7 DSS
drug sensitivity score [18, 19]: 10.4 ± 3.8 DSS
drug sensitivity score [18, 23]: 0 DSS
drug sensitivity score [18, 20]: 5.17 ± 2.1 DSS
drug sensitivity score [18, 21]: 0 DSS
drug sensitivity score [18, 22]: 0.2 ± 0.27 DSS
